# From US10160986B2, “Chemoenzymatic synthesis of heparin and heparan sulfate analogs” (The Regents of the University of California, priority 2011, dated 2018)
# How the values were obtained:
# NahK_ATCC55813 = NahK_ATCC55813 (Bifidobacterium longum subsp. longum, UniProt E8MF12, D7V/R348H)
# Experimental: (§1) Kinetics by CE assays. Reactions were carried out in duplicate at 37° C. for 10 min in a total volume of 20 μL in Tris-HCl buffer (200 mM, pH 7.5) containing MgCl2 (1 mM), ATP, GlcNAc or GalNAc, and NahK (0.25 μM when GlcNAc and ATP were used as substrates, 0.5 μM when GalNAc and ATP were used as substrates). Apparent kinetic parameters were obtained by varying the ATP concentration from 0.1-5.0 mM (0.1 mM, 0.2 mM, 0.4 mM, 1 mM, 2 mM, and 5 mM) at a fixed concentration of GlcNAc or GalNAc (1 mM), or varying the concentration of GlcNAc or GalNAc (0.1 mM, 0.2 mM, 0.4 mM, 1 mM, 2 mM, and 5 mM) at a fixed concentration of ATP (1 mM) and fitting the data to the Michaelis-Menten equation using Grafit 5.0.
# (§2) Capillary electrophoresis (CE) assays. Based on the detection of ADP and ATP in the reaction mixture by a UV detector, a capillary electrophoresis-based method was developed to directly measure the formation of ADP and N-acetylhexosamine-1-phosphate from ATP and N-acetylhexosamine for characterizing the activities of NahKs.
# NahK_JCM1217 = NahK_JCM1217 (Bifidobacterium longum subsp. longum, UniProt E8MF12); conditions: ATP and GlcNAc as substrates; HPIC with pulsed amperometric detector; cited from earlier work
# human FGF-1 = target: T1, human FGF-1 (Homo sapiens, UniProt P05230); test: Inhibition of FGF-1 binding to immobilized heparin-biotin; conditions: compound 1 mM; FGF 1 μM
# T1 construct: purchased PeproTech Inc (Rocky Hill, N.J.)
# From the text: (§3) Materials. Recombinant human fibroblast growth factors FGF-1, FGF-2, FGF-4, and anti-human FGF-1, FGF-2, FGF-4 were purchased from PeproTech Inc (Rocky Hill, N.J.). Heparin-biotin was from Sigma (St. Louis, Mo.). Low molecular weight heparin (LMWH) was bought from AMS Biotechnology (Lake Forest, Calif.). Alexa Fluor® 488 goat anti-rabbit IgG (H+L) was from Invitrogen (Carlsbad, Calif.). 384-Well NeutrAvidin-coated plates for the sialidase assays were from Fisher Biotech.
# (§4) Methods. All assays were carried out in duplicate in 384-well NeutrAvidin coated plates. Heparin-biotin (20 μL, 2 μM) was added to each well and the plate was incubated at 4° C. for overnight. The plate was washed with 3 rounds of 1×PBS buffer containing 0.05% Tween-20 and blocked with 1% BSA (50 μL for each well) and incubated at r.t. for 30 min. After the plate was washed three times with 1×PBS buffer containing 0.05% Tween-20, each set of duplicate wells were added 20 μL of human FGF-1, FGF-2, or FGF-4 (1 μM) with or without premixing with LMWH (˜22 nM or 0.1 μM), monosaccharide, or oligosaccharides (100 μM or 1 mM) and the plate was incubate at r.t. for 1 hr. After washing three times with 1×PBS buffer containing 0.05% Tween-20, anti-human FGF-1, FGF-2 or FGF-4 (20 μL) was added and the plate was incubated at r.t. for 1 hr. After the plate was washed three times with 1×PBS buffer containing 0.05% Tween-20, Alexa Fluor® 488 goat anti-rabbit IgG (H+L) (20 μL) was added and the plate was incubated at r.t. for 1 hr. After washed three times with 1×PBS buffer containing 0.05% Tween-20 and once with water, the fluorescent signals of wells in the plate were measured using a microtiter plate reader.
# AtGlcAK [1] = target: T2, AtGlcAK (Arabidopsis thaliana, UniProt Q93ZC9, I297M); test: AtGlcAK substrate specificity by TLC and LC-MS; assay type: biochemical; conditions: sugar 10 mM, ATP 20 mM, AtGlcAK 22 μg, 37° C., 15 hr
# T2 construct: made in house; host or cells: E. coli BL21 (DE3)
# Experimental: Substrates specificity assays by thin-layer chromatography (TLC). […] For visualizing compounds on TLC plate, p-anisaldehyde sugar stain was used.
# LC-MS assays for AtGlcAK reactions. The AtGlcAK reaction mixtures above were also analyzed by LC-MS. 2 μL of sample was diluted 100 fold and 8 μL was injected into a Waters spherisorb ODS-2 column (5 μm particles, 250 mm length, 4.6 mm I.D.). The sample was eluted with 30% acetonitrile in H2O with 0.1% formic acid and detected by ESI-MS in negative mode.
# [2] = test system: necrotizing enterocolitis in neonatal rats; test: Necrotizing enterocolitis neonatal rat model; assay type: in vivo, Sprague-Dawley rats; conditions: formula containing 300 μg/mL glycan; for mean ileum pathology score (0: healthy; 4: complete destruction): oral gavage twice daily, 96 hours, mean±standard deviation
# Experimental: Rat studies. The efficacy of the synthesized glycans against necrotizing enterocolitis was tested in the same neonatal rat model as previously described for DSLNT. Briefly, pregnant time-dated Sprague-Dawley rats were induced at term and immediately randomized into one of the different study groups. Animals in the dam-fed group (DF) remained with the dam. All other animals were separated from the dam, housed in a temperature- and humidity-controlled incubator and orally gavaged with a special rodent formula (0.2 mL) twice daily. All animals, dam-fed and gavaged, were exposed to 10 min of hypoxia (5% O2, 95% N2) thrice daily in a modular chamber. All animals were sacrificed 96 hours post-partum, and 0.5 cm of the terminal ileum prepared for H&E staining per standard protocols and scored blindly based on morphological changes that included epithelial sloughing, villus edema, infiltration of neutrophils, apoptosis of villus enterocytes, crypt hyperplasia and misaligned nuclei in the epithelium. If at least one pathology sign was observed, a score of 0.5-1.5 was assigned depending on severity. […] The maximum score of 4 was given in case of complete obliteration of the epithelium with or without intestinal perforation. Pathology scores were plotted for each animal and the mean calculated per group. Differences between the groups were calculated by 1 way ANOVA with Kruskal-Wallis test and Dunn's Multiple Comparison test. Significance was defined as a P value of less than 0.05.
# NahK_ATCC15697 = NahK_ATCC15697 (Bifidobacterium longum, UniProt B7GN78); test: Kinetics by CE assays, NahK_ATCC15697; conditions: in the presence of ATP
# Experimental: as §1, §2
# AtGlcAK [3] = target: T2, AtGlcAK; test: AtGlcAK substrate specificity CE assay; assay type: biochemical
# Experimental: Substrate specificity assays. […] The reactions were quenched and assayed with the same method as those for pH profile. All reactions were performed in duplicates.
# human FGF-2 = target: T3, human FGF-2 (Homo sapiens, UniProt P09038); test: Inhibition of FGF-2 binding to immobilized heparin-biotin; conditions: compound 1 mM; FGF 1 μM
# T3 construct: purchased PeproTech Inc (Rocky Hill, N.J.)
# From the text: as §3, §4
# human FGF-4 = target: T4, human FGF-4 (Homo sapiens, UniProt P08620); test: Inhibition of FGF-4 binding to immobilized heparin-biotin; conditions: compound 1 mM; FGF 1 μM
# T4 construct: purchased PeproTech Inc (Rocky Hill, N.J.)
# T4 sequence (P08620 31-206): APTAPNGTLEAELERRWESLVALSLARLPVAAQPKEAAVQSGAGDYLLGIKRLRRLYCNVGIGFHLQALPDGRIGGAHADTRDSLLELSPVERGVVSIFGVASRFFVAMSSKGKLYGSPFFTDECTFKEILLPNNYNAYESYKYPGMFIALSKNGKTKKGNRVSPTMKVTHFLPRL
# From the text: as §3
# as §4, with “After washing three times with 1×PBS buffer containing 0.05% Tween-20, anti-human FGF-1, FGF-2 or FGF-4 (20 μL) was added and the plate was incubated at r.t. for 1 hr. After the plate was washed three times with 1×PBS buffer containing 0.05% Tween-20, Alexa Fluor® 488 goat anti-rabbit IgG (H+L) (20 μL) was added and the plate was incubated at r.t. for 1 hr.” left out
# [4] = test system: necrotizing enterocolitis in neonatal rats; conditions: previously reported; cited from earlier work
# [5] = Low enzyme Conc. (412 ng in 20 μL, 15 min, 37° C.)
compound,measurement,setting,value
"Nc1ncnc2c1ncn2[C@@H]1O[C@H](COP(=O)(O)OP(=O)(O)OP(=O)(O)O)[C@@H](O)[C@H]1O [ATP, Adenosine-5′-triphosphate]",kcat,NahK_ATCC55813; substrates ATP and GlcNAc,1.3 ± 0.1 s⁻¹
same,Km,"NahK_ATCC55813; substrates ATP and GlcNAc, one varied, other fixed at 1 mM, 37° C., 10 min",110 ± 30 µM
same,Km,NahK_JCM1217,172 µM
GlcAβ1-4GlcNH2α1-4GlcAβ2AA [Compound F24-11],FGF-1 (% inhibition),human FGF-1,76%
"O=C[C@@H](O)[C@H](O)[C@@H](O)[C@H](O)C(=O)O [IdoA, iduronic acid]",substrate for AtGlcAK (formation of sugar-1-phosphate),AtGlcAK [1],acceptable substrates
Neu5Acα2-6Galβ1-4GlcNAcβ1-3(Neu5Acα2-6)Galβ1-4Glc [DSLNnT],NEC preventing effect in neonatal rats,[2],protects neonatal rats from necrotizing enterocolitis
same,mean ileum pathology score (0: healthy; 4: complete destruction),[2],1.29±0.54
"CC(=O)N[C@H]1[C@H](O[C@H]2[C@@H](O)[C@@H](CO)O[C@@H](O[C@H]3[C@H](O)[C@@H](O)C(O)O[C@@H]3CO)[C@@H]2O)O[C@H](CO)[C@@H](O[C@@H]2O[C@H](CO)[C@H](O)[C@H](O[C@]3(C(=O)O)C[C@H](O)[C@@H](NC(C)=O)[C@H]([C@H](O)[C@H](O)CO)O3)[C@H]2O)[C@@H]1O (some centres unmarked) [3′″-sLNnT, Neu5Acα2-3Galβ1-4GlcNAcβ1-3Galβ1-4Glc]",NEC preventing effect in neonatal rats,[2],lacking of NEC preventing effect
same,mean ileum pathology score (0: healthy; 4: complete destruction),[2],2.05±0.55
"CC(=O)N[C@H]1C(O)O[C@H](CO)[C@@H](O)[C@@H]1O (some centres unmarked) [GlcNAc, N-acetylglucosamine]",efficiency as substrate relative to GalNAc,NahK_ATCC15697,3.1 fold
same,efficiency as substrate relative to GalNAc,NahK_ATCC55813; in the presence of ATP,2.6 fold
same,Km,NahK_JCM1217,118 µM
"O=C[C@H](O)[C@@H](O)[C@H](O)[C@H](O)C(=O)O [Compound F24-1, glucuronic acid]",substrate for AtGlcAK (formation of sugar-1-phosphate),AtGlcAK [1],acceptable substrates
same,Percentage conversion of ATP,AtGlcAK [3]; [5],61.5%
same,inhibition at 1000 µM,human FGF-1,65%
same,inhibition at 1000 µM,human FGF-2,68%
same,inhibition at 1000 µM,human FGF-4,54%
GlcNAc6N3α1-4GlcAβ1-4GlcNH2α1-4GlcAβ2AA [Compound F24-13],FGF-1 (% inhibition),human FGF-1,62%
"CC(=O)N[C@H]1[C@H](O[C@H]2[C@@H](O)[C@@H](CO)O[C@@H](O[C@@H]([C@H](O)[C@@H](O)C=O)[C@H](O)CO)[C@@H]2O)O[C@H](CO[C@]2(C(=O)O)C[C@H](O)[C@@H](NC(C)=O)[C@H]([C@H](O)[C@H](O)CO)O2)[C@@H](O)[C@@H]1O[C@@H]1O[C@H](CO)[C@H](O)[C@H](O[C@]2(C(=O)O)C[C@H](O)[C@@H](NC(C)=O)[C@H]([C@H](O)[C@H](O)CO)O2)[C@H]1O [DSLNT, disialyllacto-N-tetraose]",NEC preventing effect in neonatal rat model,[4],effective for preventing necrotizing enterocolitis
"O=C[C@H](O)[C@@H](O)[C@@H](O)[C@H](O)C(=O)O [GalA, galacturonic acid]",substrate for AtGlcAK (formation of sugar-1-phosphate),AtGlcAK [1],acceptable substrates
same,Percentage conversion of ATP,"AtGlcAK [3]; High enzyme Conc. (2.1 μg in 20 μL, 60 min, 37° C.)",15.3%
same,Percentage conversion of ATP,AtGlcAK [3]; [5],6.2%
GlcNAc6NSα1-4GlcAβ1-4GlcNSα1-4GlcAβ2AA [Compound F24-16],FGF-1 (% inhibition),human FGF-1,58%
same,FGF-2 (% inhibition),human FGF-2,55%
GlcNAc6NH2α1-4GlcAβ1-4GlcNSα1-4GlcAβ2AA [Compound F24-15],FGF-2 (% inhibition),human FGF-2,68%
same,FGF-4 (% inhibition),human FGF-4,43%
